Calls of active or inactive are those of the source. The rule behind the calls is not given here.
Test system: CCRIS mutagenicity, Ames/micronucleus/aberration tests
Assay: CCRIS mutagenicity studies
[1] = Test System: AMES SALMONELLA TYPHIMURIUM, Strain/Indicator: TA100, Metabolic Activation: NONE, Method: PREINCUBATION
[2] = Test System: AMES SALMONELLA TYPHIMURIUM, Strain/Indicator: TA98, Metabolic Activation: NONE
[3] = Test System: AMES SALMONELLA TYPHIMURIUM, Strain/Indicator: TA100, Metabolic Activation: NONE
[4] = Test System: AMES SALMONELLA TYPHIMURIUM, Strain/Indicator: TA1535, Metabolic Activation: NONE
[5] = Test System: AMES SALMONELLA TYPHIMURIUM, Strain/Indicator: TA1537, Metabolic Activation: NONE
[6] = Test System: AMES SALMONELLA TYPHIMURIUM, Strain/Indicator: TA98, Metabolic Activation: NONE, Method: STANDARD PLATE
[7] = Test System: AMES SALMONELLA TYPHIMURIUM, Strain/Indicator: TA98, Metabolic Activation: RAT, LIVER, S-9, AROCLOR 1254, Method: STANDARD PLATE
[8] = Test System: AMES SALMONELLA TYPHIMURIUM, Strain/Indicator: TA100, Metabolic Activation: NONE, Method: STANDARD PLATE
[9] = Test System: AMES SALMONELLA TYPHIMURIUM, Strain/Indicator: TA100, Metabolic Activation: RAT, LIVER, S-9, AROCLOR 1254, Method: STANDARD PLATE
[10] = Test System: AMES SALMONELLA TYPHIMURIUM, Strain/Indicator: TA1535, Metabolic Activation: RAT, LIVER, S-9, AROCLOR 1254, Method: STANDARD PLATE
[11] = Test System: AMES SALMONELLA TYPHIMURIUM, Strain/Indicator: TA98, Metabolic Activation: NONE, Method: PREINCUBATION

Question: Which mutagenic call (End Point: IN VIVO MICRONUCLEUS, Test System: BONE MARROW POLYCHROMATIC ERYTHROCYTES, Species: MOUSE, Strain/Sex: SWISS/MALE, FEMALE, Route: IP 2X IN AQUEOUS SUSPENSION WITHIN 24 HR) does the source give for CC(=O)[O][Sn]([c]1ccccc1)([c]1ccccc1)[c]1ccccc1 here?
Answer: active; positive

Question: Which mutagenic call [1] does the source give for NC(=O)N(CCCC(=O)O)N=O here?
Answer: active; positive

Question: And the mutagenic call (Test System: AMES SALMONELLA TYPHIMURIUM, Strain/Indicator: TA1535, Metabolic Activation: NONE, Method: PREINCUBATION)?
Answer: active; positive

Question: And the mutagenic call (Test System: E. COLI B, Strain/Indicator: H/R30R, Metabolic Activation: NONE)?
Answer: active; positive

Question: What about the mutagenic call (Test System: E. COLI B, Strain/Indicator: HS30R, Metabolic Activation: NONE) of the same compound?
Answer: active; positive

Question: Which results are given for CCCCCCCCCCCC[N+](C)(C)COCCCCCCCC?
Answer: mutagenic call (Test System: BACILLUS SUBTILIS, Strain/Indicator: H17/REC, Metabolic Activation: NONE, Method: STANDARD PLATE): inactive; negative; mutagenic call (Test System: BACILLUS SUBTILIS, Strain/Indicator: M45, Metabolic Activation: NONE, Method: STANDARD PLATE): inactive; negative

Question: What does the source list for O=C(N[C@@H](Cc1ccc(Cl)cc1)C(=O)O)OCc1ccccc1?
Answer: mutagenic call [2]: inactive; negative; mutagenic call [3]: active; positive; mutagenic call [4]: inactive; negative; mutagenic call [5]: inactive; negative; mutagenic call (Test System: B. SUBTILIS, Strain/Indicator: BD190 REC, Metabolic Activation: NONE, Method: SPOT TEST): active; positive; mutagenic call (Test System: E. COLI, Strain/Indicator: AB2462 UVRA, Metabolic Activation: NONE, Method: SPOT TEST): active; positive; mutagenic call (Test System: E. COLI, Strain/Indicator: WP6 POLA, Metabolic Activation: NONE, Method: SPOT TEST): inactive; negative

Question: For CC(=O)N(O)c1ccc(C)cc1, which mutagenic call [6] is on record?
Answer: inactive; negative

Question: What about the mutagenic call [7] of the same compound?
Answer: inactive; negative

Question: What about the mutagenic call [8] of the same compound?
Answer: inactive; negative

Question: What about the mutagenic call [9] of the same compound?
Answer: inactive; negative

Question: With COc1cc(C=O)ccc1O as the compound, how does the mutagenic call [6] read?
Answer: inactive; negative

Question: What about the mutagenic call [7] of the same compound?
Answer: inactive; negative

Question: What about the mutagenic call [8] of the same compound?
Answer: inactive; negative

Question: And the mutagenic call [9]?
Answer: inactive; negative

Question: And the mutagenic call [10]?
Answer: inactive; negative

Question: What about the mutagenic call (Test System: E. COLI, Strain/Indicator: CM561 LEXA, Metabolic Activation: NONE, Method: STANDARD PLATE) of the same compound?
Answer: inactive; negative

Question: And the mutagenic call (Test System: E. COLI, Strain/Indicator: CM611 UVRA/LEXA, Metabolic Activation: NONE, Method: STANDARD PLATE)?
Answer: inactive; negative

Question: And the mutagenic call (Test System: E. COLI, Strain/Indicator: WP2 UVRA, Metabolic Activation: NONE, Method: STANDARD PLATE)?
Answer: inactive; negative

Question: For N[C@@H](CSC(Cl)=C(Cl)Cl)C(=O)O, which mutagenic call [1] is on record?
Answer: active; positive

Question: What about the mutagenic call [8] of the same compound?
Answer: active; positive

Question: And the mutagenic call (Test System: AMES SALMONELLA TYPHIMURIUM, Strain/Indicator: TA100, Metabolic Activation: RAT, KIDNEY, S-9, AROCLOR 1254, Method: STANDARD PLATE)?
Answer: active; positive

Question: What about the mutagenic call (Test System: AMES SALMONELLA TYPHIMURIUM, Strain/Indicator: TA2638, Metabolic Activation: NONE, Method: PREINCUBATION) of the same compound?
Answer: inactive; negative

Question: Which results are given for CNc1ccc2ncc(C)nc2c1N?
Answer: mutagenic call [11]: inactive; negative; mutagenic call (Test System: AMES SALMONELLA TYPHIMURIUM, Strain/Indicator: TA98, Metabolic Activation: RAT, LIVER, S-9, AROCLOR 1254, Method: PREINCUBATION): inactive; negative; mutagenic call [1]: inactive; negative; mutagenic call (Test System: AMES SALMONELLA TYPHIMURIUM, Strain/Indicator: TA100, Metabolic Activation: RAT, LIVER, S-9, AROCLOR 1254, Method: PREINCUBATION): inactive; negative

Question: How did the mutagenic call (Test System: AMES SALMONELLA TYPHIMURIUM, Strain/Indicator: TA97A, Metabolic Activation: NONE, Method: PREINCUBATION) turn out when OC1c2ccc3c(c2C2OC2C1O)-c1cccc2cccc-3c12 (configuration not stated) was run?
Answer: active; positive

Question: And the mutagenic call [11]?
Answer: active; positive

Question: And the mutagenic call [1]?
Answer: active; positive

Question: How did the mutagenic call (Test System: AMES SALMONELLA TYPHIMURIUM, Strain/Indicator: TA97, Metabolic Activation: NONE, Method: PREINCUBATION) turn out when O[C@@H]1[C@H]2O[C@H]2c2c(ccc3ccccc23)[C@H]1O was run?
Answer: active; positive

Question: What about the mutagenic call [11] of the same compound?
Answer: active; positive

Question: What about the mutagenic call [1] of the same compound?
Answer: active; positive

Question: What about the mutagenic call [8] of the same compound?
Answer: active; positive

Question: And the mutagenic call (Test System: AMES SALMONELLA TYPHIMURIUM, Strain/Indicator: TA104, Metabolic Activation: NONE, Method: PREINCUBATION)?
Answer: active; positive

Question: What about the mutagenic call (Test System: CHINESE HAMSTER V-79, Strain/Indicator: V-79/6-THIOGUANINE, Metabolic Activation: NONE) of the same compound?
Answer: active; positive

Question: Which mutagenic call (Test System: UDS RAT HEPATOCYTES, Strain/Indicator: THY INCORP, Metabolic Activation: NONE, Method: LIQUID SCINTILLATION COUNTING) does the source give for C=CCc1cc(OC)c(OC)c(OC)c1 here?
Answer: active; positive

Question: How did the mutagenic call [6] turn out when CCOC(=O)C(C)=O was run?
Answer: inactive; negative

Question: What about the mutagenic call [7] of the same compound?
Answer: inactive; negative

Question: And the mutagenic call [8]?
Answer: inactive; negative

Question: And the mutagenic call [9]?
Answer: inactive; negative

Question: What about the mutagenic call (Test System: AMES SALMONELLA TYPHIMURIUM, Strain/Indicator: TA1535, Metabolic Activation: NONE, Method: STANDARD PLATE) of the same compound?
Answer: inactive; negative

Question: And the mutagenic call [10]?
Answer: inactive; negative

Question: And the mutagenic call (Test System: AMES SALMONELLA TYPHIMURIUM, Strain/Indicator: TA1537, Metabolic Activation: NONE, Method: STANDARD PLATE)?
Answer: inactive; negative

Question: And the mutagenic call (Test System: AMES SALMONELLA TYPHIMURIUM, Strain/Indicator: TA1537, Metabolic Activation: RAT, LIVER, S-9, AROCLOR 1254, Method: STANDARD PLATE)?
Answer: inactive; negative

Question: Which mutagenic call [2] does the source give for CC(=O)c1ccc2c(c1)C(=O)C1(CC1)O2 here?
Answer: inactive; negative

Question: What about the mutagenic call (Test System: AMES SALMONELLA TYPHIMURIUM, Strain/Indicator: TA98, Metabolic Activation: S-9) of the same compound?
Answer: inactive; negative

Question: What about the mutagenic call [3] of the same compound?
Answer: inactive; negative

Question: And the mutagenic call (Test System: AMES SALMONELLA TYPHIMURIUM, Strain/Indicator: TA100, Metabolic Activation: S-9)?
Answer: inactive; negative

Question: And the mutagenic call [4]?
Answer: inactive; negative

Question: What about the mutagenic call (Test System: AMES SALMONELLA TYPHIMURIUM, Strain/Indicator: TA1535, Metabolic Activation: S-9) of the same compound?
Answer: inactive; negative

Question: What about the mutagenic call [5] of the same compound?
Answer: inactive; negative

Question: What about the mutagenic call (Test System: AMES SALMONELLA TYPHIMURIUM, Strain/Indicator: TA1537, Metabolic Activation: S-9) of the same compound?
Answer: inactive; negative

Question: And the mutagenic call (Test System: E. COLI, Strain/Indicator: WP2 (HCR), Metabolic Activation: NONE)?
Answer: inactive; negative

Question: What about the mutagenic call (Test System: E. COLI, Strain/Indicator: WP2 (HCR), Metabolic Activation: S-9) of the same compound?
Answer: inactive; negative

From PubChem BioAssay AID1259407 (Chemical Carcinogenesis Research Information System (CCRIS), 2018)
